Measurements from patent US11535596B2 (priority 2020, dated 2022).
Like-named read-outs stand apart in the source and are kept apart here.

Columns and labels:
[1] = Drug stability in human liver microsomes; type: in vitro ADME
Text: Testing of Drug Stability in Human Liver Microsomes
This assay involves exposing a test compound to vesicles which contain the contents of digestive organelles (endoplasmic reticula) derived from human liver cells. The tests were done by Microconstants Inc., San Diego, Calif., using methods substantially as described in J. R. Hill, “In vitro drug metabolism using liver microsomes,” Curr. Protocols Pharmacol., Chapter 7, Unit 7.8 (2004), John Wiley & Sons, Inc.
The results, in Table 1 below, indicate the percentage decomposition of the test compound after 1 hour. […] Although degraded as rapidly, or even more rapidly than DM, other compounds remain of interest due to their receptor binding activities, as detailed further below.

sigma-1 receptors = sigma-1 receptors (Homo sapiens (Human), UniProt Q99720); assay: biochemical; type: binding
[2] = molecular target: phencyclidine site of NMDA-type glutamate receptors; assay: NMDA receptor (phencyclidine site) radioligand binding inhibition
Method: In vitro binding assays for the phencyclidine site of NMDA-type glutamate receptors, and for sigma-1 receptors, both of which are known to be bound by DM, were conducted by Sekisui Medical Co., Ltd. of Ibaraki, Japan. In these assays, DM acts as an antagonist at NMDA receptors, which are excitatory in their effects, thereby allowing DM to reduce, calm, and modulate unwanted neuronal activity in neuronal networks that are activated by glutamate agonist activity at NMDA receptors. DM acts as an agonist at sigma-1 receptors, which are inhibitory receptors, thereby allowing DM to reduce unwanted neuronal activity by a second mechanism. Assays for sigma-1 and NMDA (phencyclidine site) receptor affinities, based on inhibition of radioligand binding, provided the results shown in Table 2 below.

[3] = Caco-2 bidirectional permeability assay; type: in vitro ADME; set-up: Papp A→B / Papp B→A: dose or concentration left out as unconfirmed; settings: human
Text: The human colon carcinoma cell Caco-2 provides a well-established and effective model for predicting intestinal absorption of chemicals, and in determining the mechanism of transport. […] The method is used to assess the bidirectional permeability of a test compound, from the apical to the basolateral side (A-B) of a Caco-2 cell monolayer membrane, and vice versa (B-A). R. B. van Breemen, Y. Li, “Caco-2 cell permeability assays to measure drug absorption,” Expert Opin. Drug Metab. […] The transport rate of a compound across the monolayer is highly predictive of the in vivo absorption of the compound across the gut wall, and the Caco-2 permeability assay is an FDA-recommended method for evaluating the absorption of orally-administered drugs. Results of this assay for selected reference drugs and compounds of the invention are set out in Table 3.

human recombinant hERG = human recombinant hERG (Homo sapiens (Human), UniProt Q12809); assay: hERG radioligand (3H-astemizole) binding assay
Text: Cardiac Potassium Channel (hERG) Assays
The human ether-a-go-go related gene (hERG) encodes the inward-rectifying voltage-gated potassium channel (IKr) in the heart, which is involved in cardiac repolarization. Inhibition of the hERG current causes QT interval prolongation, potentially resulting in ventricular tachyarrhythmia, and the detection of this potential liability is desirable at an early stage of drug discovery.

κ opioid receptor = κ opioid receptor (Homo sapiens (Human), UniProt P41145); assay: biochemical; settings: 3H-diprenorphine binding; for IC50: read-out: Opiate κ IC50; for Ki: read-out: Opiate κ Ki
μ opioid receptor = μ opioid receptor (Homo sapiens (Human), UniProt P35372); assay: μ opioid receptor radioligand (3H-diprenorphine) binding assay
[4] = molecular target: human serotonin transporter (Homo sapiens (Human), UniProt P31645); assay: biochemical; settings: 3H-imipramine binding, HEK-293 membranes; for IC50: read-out: SERT IC50; for Ki: read-out: SERT Ki
Text: Serotonin Transporter (SERT) Assay
The serotonin transporter (SERT) is a monoamine transporter protein that transports serotonin from the synaptic cleft back to the presynaptic neuron (serotonin reuptake.) Serotonin modulates emotional states in humans, and inhibition of SERT activity is the basis for the SSRI class of antidepressants.

[5] = cited from earlier work
[6] = inhibition of radioligand binding, read-out: Sigma-1 IC50
[7] = inhibition of radioligand binding, read-out: Sigma-1 Ki

human recombinant hERG, sequence (Q12809 whole entry, looked up): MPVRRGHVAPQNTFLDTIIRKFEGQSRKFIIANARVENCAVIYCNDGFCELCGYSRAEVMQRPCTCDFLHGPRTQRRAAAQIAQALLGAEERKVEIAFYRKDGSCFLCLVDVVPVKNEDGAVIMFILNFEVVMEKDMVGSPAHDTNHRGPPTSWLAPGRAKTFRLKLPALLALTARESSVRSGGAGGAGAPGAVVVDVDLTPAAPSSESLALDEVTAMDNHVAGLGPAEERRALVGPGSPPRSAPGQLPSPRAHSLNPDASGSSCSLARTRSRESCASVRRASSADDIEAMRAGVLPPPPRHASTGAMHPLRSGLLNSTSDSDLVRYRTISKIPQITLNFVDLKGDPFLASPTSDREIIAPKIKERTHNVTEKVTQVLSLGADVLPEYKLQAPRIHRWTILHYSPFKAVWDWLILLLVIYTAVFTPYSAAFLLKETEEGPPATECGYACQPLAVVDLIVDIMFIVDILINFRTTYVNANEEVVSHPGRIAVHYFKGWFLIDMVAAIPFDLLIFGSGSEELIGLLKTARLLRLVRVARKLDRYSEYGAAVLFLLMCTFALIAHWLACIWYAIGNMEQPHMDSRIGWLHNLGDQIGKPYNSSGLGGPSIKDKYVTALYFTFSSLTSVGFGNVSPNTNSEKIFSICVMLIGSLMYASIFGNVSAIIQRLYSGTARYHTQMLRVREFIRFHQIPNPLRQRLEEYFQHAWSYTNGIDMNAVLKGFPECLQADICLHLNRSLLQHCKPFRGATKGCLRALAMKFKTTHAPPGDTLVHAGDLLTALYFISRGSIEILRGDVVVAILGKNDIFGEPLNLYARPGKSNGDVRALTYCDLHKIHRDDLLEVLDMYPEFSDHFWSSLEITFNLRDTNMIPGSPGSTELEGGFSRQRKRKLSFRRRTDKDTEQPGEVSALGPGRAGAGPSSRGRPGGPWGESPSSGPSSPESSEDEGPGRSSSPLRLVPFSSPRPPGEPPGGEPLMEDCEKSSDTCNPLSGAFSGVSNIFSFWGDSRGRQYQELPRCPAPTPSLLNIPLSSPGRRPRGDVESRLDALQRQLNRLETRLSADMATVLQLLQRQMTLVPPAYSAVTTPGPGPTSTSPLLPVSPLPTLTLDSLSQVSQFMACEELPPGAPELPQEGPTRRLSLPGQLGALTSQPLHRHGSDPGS
sigma-1 receptors, sequence (Q99720 whole entry, looked up): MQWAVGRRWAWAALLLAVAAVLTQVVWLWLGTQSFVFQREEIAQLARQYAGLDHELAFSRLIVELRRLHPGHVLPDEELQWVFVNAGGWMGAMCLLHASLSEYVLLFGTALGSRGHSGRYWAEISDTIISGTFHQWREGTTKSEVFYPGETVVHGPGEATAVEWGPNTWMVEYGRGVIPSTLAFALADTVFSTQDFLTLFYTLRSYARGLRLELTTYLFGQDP

[2H]C([2H])(Oc1ccc2c(c1)[C@]13CCCC[C@@H]1[C@H](C2)N(C)CC3)C(F)F [CNS1-D2, (1S,9S,10S)-4-(1,1-dideuterio-2,2-difluoroethoxy)-17-methyl-17-azatetracyclo[7.5.3.0^1,10.0^2,7]heptadeca-2(7),3,5-triene]
half-life [1]: 123 min
IC50 (sigma-1 receptors; [6]): 57.8 nM
Ki (sigma-1 receptors; [7]): 40.6 nM
IC50 [2]: > 30 µM

[2H]C([2H])(Oc1ccc2c(c1)[C@]13CCCC[C@@H]1[C@H](C2)N(C([2H])([2H])[2H])CC3)C(F)F [CNS1-D5, (1S,9S,10S)-4-(1,1-dideuterio-2,2-difluoroethoxy)-17-(trideuteriomethyl)-17-azatetracyclo[7.5.3.0^1,10.0^2,7]-heptadeca-2,4,6-triene]
half-life [1]: > 240 min
% decomposition at 1 hour [1]: 9.7%
Ki (sigma-1 receptors; [7]): 22 nM
Ki [2]: 9.9 µM
Papp A→B at 0.1 μM ([3]; apical to basolateral): 14.4 ×10⁻⁶ cm/s
Papp B→A at 0.1 μM ([3]; basolateral to apical): 12.5 ×10⁻⁶ cm/s
Papp A→B at 1 μM ([3]; apical to basolateral): 18.4 ×10⁻⁶ cm/s
Papp B→A at 1 μM ([3]; basolateral to apical): 15.4 ×10⁻⁶ cm/s
IC50 (human recombinant hERG): 34.5 µM
Ki (human recombinant hERG): 7.48 µM
IC50 (κ opioid receptor): 29.8 µM
Ki (κ opioid receptor): 12 µM
IC50 (μ opioid receptor): 54.7 µM
Ki (μ opioid receptor): 10.1 µM
IC50 [4]: 44.1 nM
Ki [4]: 26.2 nM

CN1CC[C@@]23CCCC[C@@H]2C1Cc1ccc(OCC(F)F)cc13 [CNS1]
rate of metabolism and degradation compared with DM [1]: metabolized and degraded less rapidly than DM
% decomposition at 1 hour [1]: 6.1%

CN1CC[C@@]23CCCC[C@@H]2C1Cc1ccc(OCCF)cc13 [CNS2]
rate of metabolism and degradation compared with DM [1]: metabolized and degraded less rapidly than DM
% decomposition at 1 hour [1]: 15.4%

CN1CC[C@@]23CCCC[C@@H]2[C@@H]1Cc1ccc(OCc2ccncc2)cc13 [CNS4]
% decomposition at 1 hour [1]: 100%

CN1CC[C@@]23CCCC[C@@H]2[C@@H]1Cc1ccc(O)c(Br)c13 [CNS6, (1S,9S,10S)-3-bromo-4-hydroxy-17-methyl-17-azatetracyclo[7.5.3.0^1,10.0^2,7]-heptadeca-2(7),3,5-triene]
% decomposition at 1 hour [1]: 56%
IC50 (sigma-1 receptors; [6]): 172 nM
Ki (sigma-1 receptors; [7]): 121 nM
IC50 [2]: > 30 µM

CN1CC[C@@]23CCCCC2C1Cc1ccc(OCC(F)F)c(Br)c13 (stereo partly drawn) [CNS6-A1-D2]
t1/2 [1]: 60 min
IC50 (sigma-1 receptors; [6]): 21.8 nM
Ki (sigma-1 receptors; [7]): 15.3 nM
IC50 [2]: > 30 µM

COc1ccc2c(c1Br)[C@]13CCCCC1[C@H](C2)N(C)CC3 (stereo partly drawn) [CNS6-A2]
IC50 (sigma-1 receptors; [6]): 247 nM

COc1cc2c(cc1Br)CC1C3CCCC[C@@]23CCN1C (stereo partly drawn) [CNS7-M]
IC50 (sigma-1 receptors): > 10000 nM

COc1ccc2c(c1)[C@]13CCCCC1C(C2)N(Cc1cccnc1)CC3 (stereo partly drawn) [CNS10]
% decomposition at 1 hour [1]: 98.4%

C=CCN(C)CC[C@@]12CCCC[C@@H]1C=Cc1ccc(OC)cc12 [CNS22]
half-life [1]: 36 min
IC50 (sigma-1 receptors): 29.1 nM
Ki (sigma-1 receptors): 20.5 nM

[2H]C([2H])(Oc1ccc2c(c1)[C@]1(CCN(C)CC=C)CCCC[C@@H]1C=C2)C(F)F [CNS23-D2]
half-life [1]: 32 min
IC50 (sigma-1 receptors; [6]): 11.1 nM
Ki (sigma-1 receptors; [7]): 7.8 nM

[2H]C([2H])(Oc1ccc2c(c1)[C@]13CCCC[C@@H]1[C@H](C2)N(CCOC)CC3)C(F)F [CNS27-D2, (1S,9S,10S)-4-(1,1-dideuterio-2,2-difluoro-ethoxy)-17-(2-methoxyethyl)-17-azatetracyclo[7.5.3.0^1,10.0^2,7]-heptadeca-2,4,6-triene]
Ki (sigma-1 receptors; [7]): 1.6 nM
Ki [2]: > 23 µM
Papp A→B at 0.1 μM ([3]; apical to basolateral): 10.2 ×10⁻⁶ cm/s
Papp B→A at 0.1 μM ([3]; basolateral to apical): 9.76 ×10⁻⁶ cm/s
Papp A→B at 1 μM ([3]; apical to basolateral): 11.6 ×10⁻⁶ cm/s
Papp B→A at 1 μM ([3]; basolateral to apical): 13.1 ×10⁻⁶ cm/s
IC50 (human recombinant hERG): 22.3 µM
Ki (human recombinant hERG): 4.8 µM
IC50 (κ opioid receptor): 28.8 µM
Ki (κ opioid receptor): 11.6 µM
IC50 (μ opioid receptor): 124 µM
Ki (μ opioid receptor): 23 µM
IC50 [4]: 2680 nM
Ki [4]: 1590 nM

CN1CC[C@@]23CCCC[C@@H]2[C@@H]1Cc1ccc(OCC(F)(F)F)cc13 [CNS-222, (1S,9S,10S)-4-(2,2,2-trifluoroethoxy)-17-methyl-17-azatetracyclo[7.5.3.0^1,10.0^2,7]heptadeca-2(7),3,5-triene]
IC50 (sigma-1 receptors; [6]): 50 nM

CN1CC[C@@]23CCCC[C@@H]2[C@@H]1Cc1ccc(O)cc13 [Dextorphan (DX), reference compound]
IC50 (sigma-1 receptors; [6]): 259 nM
Ki (sigma-1 receptors; [7]): 182 nM
IC50 [2]: 1.53 µM
Ki [2]: 1.11 µM

COc1ccc2c(c1)[C@]13CCCC[C@@H]1[C@H](C2)N(C)CC3 [Dextromethorphan (DM), 3-methoxy-17-methyl-(9α,13α,14α)-morphinan, reference compound]
half-life [1]: 35 min
% decomposition at 1 hour [1]: 69%
IC50 (sigma-1 receptors): 137 nM
Ki (sigma-1 receptors): 96.3 nM
IC50 [2]: 6.82 µM
Ki [2]: 4.52 µM
Papp A→B at 0.1 μM ([3]; apical to basolateral): 15.9 ×10⁻⁶ cm/s
Papp B→A at 0.1 μM ([3]; basolateral to apical): 10.8 ×10⁻⁶ cm/s
Papp A→B at 1 μM ([3]; apical to basolateral): 19 ×10⁻⁶ cm/s
Papp B→A at 1 μM ([3]; basolateral to apical): 14.2 ×10⁻⁶ cm/s
IC50 (human recombinant hERG): 49.1 µM
Ki (human recombinant hERG): 10.6 µM
IC50 (μ opioid receptor): 51.7 µM
Ki (μ opioid receptor): 9.58 µM
plasma levels ([5]; fast metabolizers, 30 mg dose, four hours post ingestion): less than 5 ng/ml
plasma levels ([5]; poor metabolizers, oral dose of 30 mg, at 24 hours): above 5 ng/ml

Cc1ccc2c(c1)[C@]13CCCC[C@@H]1[C@H](C2)N(C)CC3 [Dimemorphan (DIM), reference compound]
t1/2 [1]: 22 min
IC50 (sigma-1 receptors; [6]): 527 nM
Ki (sigma-1 receptors; [7]): 371 nM
IC50 [2]: > 30 µM

[2H]C([2H])(Oc1ccc2c(c1)[C@]13CCCC[C@@H]1[C@H](C2)NCC3)C(F)F [N-desmethyl CNS1-D2, (1S,9S,10S)-4-(1,1-dideuterio-2,2-difluoro-ethoxy)-17-azatetracyclo[7.5.3.0^1,10.0^2,7]heptadeca-2,4,6-triene]
half-life [1]: > 240 min
% decomposition at 1 hour [1]: 10.1%
Ki (sigma-1 receptors; [7]): 70 nM
Ki [2]: 3.08 µM
Papp A→B at 0.1 μM ([3]; apical to basolateral): 9.71 ×10⁻⁶ cm/s
Papp B→A at 0.1 μM ([3]; basolateral to apical): 6.33 ×10⁻⁶ cm/s
Papp A→B at 1 μM ([3]; apical to basolateral): 10.8 ×10⁻⁶ cm/s
Papp B→A at 1 μM ([3]; basolateral to apical): 10.1 ×10⁻⁶ cm/s
IC50 (human recombinant hERG): 26.6 µM
Ki (human recombinant hERG): 5.73 µM
IC50 (κ opioid receptor): 37.7 µM
Ki (κ opioid receptor): 15.2 µM
IC50 (μ opioid receptor): 142 µM
Ki (μ opioid receptor): 26.3 µM
IC50 [4]: 470 nM
Ki [4]: 279 nM

CC(C)NCC(O)COc1cccc2ccccc12 (stereo not drawn) [Propranolol, reference compound]
Papp A→B ([3]; apical to basolateral): 21.2 ×10⁻⁶ cm/s
Papp B→A ([3]; basolateral to apical): 39 ×10⁻⁶ cm/s
